# According to patent US20130337564A1, “Treatment of Pluripotent Cells” (Janssen Biotech, Inc., priority 2012, published 2013):
# Several values for one entry are separate records, joined by “and”; a condition that tells them apart may be missing. Equal values may be shown once.
# What was measured:
# Format in all cases: cell-based
# [1] = tested on: cells expressing pluripotency markers derived from human embryonic stem cells; experiment: MTS viability (toxicity) assay of cells expressing pluripotency markers; parameters: Raw data (duplicate), first replicate / Average: unit not given here; details: for Raw data (duplicate), first replicate / Raw data (duplicate), second replicate: MTS viability assay raw reading; for Raw data (duplicate), first replicate: replicate 1; for Raw data (duplicate), second replicate: replicate 2; for Average: average of duplicate MTS raw readings
# In short: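 A GSK-3B inhibitor library was screened for toxicity to pluripotency-marker-expressing cells. Compound was given in DMEM:F12 with 0.5% FCS and 100 ng/ml Activin A for two days, then replaced by medium with 2% FCS and Activin A. On day 4, MTS absorbance at 490 nm gave viability as percent of Activin A plus Wnt3a control wells.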
# [2] = tested on: human embryonic stem cells (H9 line); experiment: High content screening assay: cell number (proliferative response)
# Protocol: (§1) Maintenance of human embryonic stem cells (H9 line) was conducted as described in Example 1. Colonies of cells were maintained in an undifferentiated, pluripotent state with passage on average every four days. Passage was performed by exposing cell cultures to a solution of collagenase (1 mg/ml; Sigma-Aldrich) for 10 to 30 minutes at 37° C. followed by gentle scraping with a pipette tip to recover cell clusters. Clusters were allowed to sediment by gravity, followed by washing to remove residual collagenase. Cell clusters were split at a 1:3 ratio for routine maintenance culture or a 1:1 ratio for immediate assay. The human embryonic stem cell lines used were maintained at passage numbers less than passage 50 and routinely evaluated for normal karyotypic phenotype and absence of mycoplasma contamination.
# (§2) Cell clusters used in the assay were evenly resuspended in normal culture medium and plated onto MATRIGEL-coated 96-well Packard VIEWPLATES (PerkinElmer) in volumes of […]. MEF conditioned medium supplemented with 8 ng/ml bFGF was used for initial plating and recovery. Daily feeding was conducted by aspirating spent culture medium from each well and replacing with an equal volume of fresh medium. Plates were maintained at 37° C., 5% CO2 in a humidified box throughout the duration of assay.
# (§3) Screening was conducted using test compounds from a proprietary library of small molecules selected for their ability to inhibit GSK-3B enzyme activity. Compounds from this library were made available as 1 mM stocks, in a 96-well plate format in 50 mM HEPES, 30% DMSO. Screening compounds were tested in triplicate or duplicate sets. Primary screening assays were initiated by aspirating culture medium from each well followed by three washes in PBS to remove residual growth factors and serum. Test volumes of 80 to 100 μl per well were added back containing DMEM:F12 base medium (Invitrogen) supplemented with 0.5% FCS (HyClone) and 100 ng/ml activin A (R&D Biosystems) plus 10 μM test compound. Positive control wells contained the same base medium, substituting 10-20 ng/ml Wnt3a (R&D Biosystems) for the test compound. Negative control wells contained base medium with 0.5% FCS and activin A alone (AA only) or alternatively, 0.5% FCS without activin A or Wnt3a (no treatment). Wells were aspirated and fed again with identical solutions on day 2 of assay. On days 3 and 4, all assay wells were aspirated and converted to DMEM:F12 supplemented with 2% FCS and 100 ng/ml activin A (without test compound or Wnt3a); parallel negative control wells were maintained in DMEM:F12 base medium with 2% FCS and activin A (AA only) or alternatively, 2% FCS without activin A (no treatment).
# (§4) At the end of culture, cells in 96-well plates were fixed with 4% paraformaldehyde at room temperature for 20 minutes, washed three times with PBS, and then permeabilized with 0.5% Triton X-100 for 20 minutes at room temperature. Alternatively, cells were fixed with ice cold 70% ethanol overnight at −20° C., washed three times with PBS, and then permeabilized with Triton X-100 for 5 minutes at 4° C. After fixing and permeabilizing, cells were washed again three times with PBS and then blocked with 4% chicken serum (Invitrogen) in PBS for 30 minutes at room temperature. Primary antibodies (goat anti-human Sox17 and goat anti-human HNF-3beta; R&D Systems) were diluted 1:100 in 4% chicken serum and added to cells for one hour at room temperature. Alexa Fluor 488 conjugated secondary antibody (chicken anti-goat IgG; Molecular Probes) was diluted 1:200 in PBS and added after washing the cells three times with PBS. To counterstain nuclei, 5 mM Draq5 (Alexis Biochemicals) was added for five minutes at room temperature. Cells were washed once with PBS and left in […] PBS for imaging.
# (§5) Cells were imaged using an IN Cell Analyzer 1000 (GE Healthcare) utilizing the 51008bs dichroic for cells stained with Draq5 and Alexa Fluor 488. […]
# [3] = tested on: Sox17 expression in human embryonic stem cells (H9 line); experiment: High content screening assay: Sox17 protein expression (differentiation); details: for SOX17 Expression, Fold over Wnt 3a/AA control: 10 μM test compound with 100 ng/ml activin A on days 1-2, H9, total intensity by IN Cell Analyzer, strong and moderate hits; for SOX-17 Expression Fold over Wnt 3a/AA control: total intensity normalised to Wnt 3a/AA control
# Protocol: as §1, §2, §3, §4, §5
# [4] = tested on: HNF-3beta expression in human embryonic stem cells (H9 line); experiment: High content screening assay: HNF-3beta protein expression (differentiation); details: for HNF-3b Expression Fold over Wnt 3a/AA control: total intensity normalised to Wnt 3a/AA control
# Protocol: as §1, §2, §3, §4, §5
# [5] = viability of cells expressing pluripotency markers, relative to control
# [6] = 10 μM test compound with 100 ng/ml activin A on days 1-2, H9, total cell number by IN Cell Analyzer, strong and moderate hits
# [7] = cell number in the wells analysed for HNF-3b expression
# [8] = cell number in the wells analysed for HNF-3b expression, normalised to Wnt 3a/AA control
# [9] = cell number in the wells analysed for SOX-17 expression
# [10] = cell number in the wells analysed for SOX-17 expression, normalised to Wnt 3a/AA control
# [11] = 10 μM test compound with 100 ng/ml activin A on days 1-2, H9, total intensity by IN Cell Analyzer, strong and moderate hits
Compound,"viability at 10 µM ([1]; Homo sapiens, Embryonic stem cell, viability of cells expressing pluripotency markers, relative to control) [%]","fold induction at 10 µM ([2]; Homo sapiens, Embryonic stem cell, 10 μM test compound with 100 ng/ml activin A on days 1-2, H9, total cell number by IN Cell Analyzer, strong and moderate hits, read-out: Proliferative Response, Fold over Wnt 3a/AA control)","SOX17 Expression, Fold over Wnt 3a/AA control [3]","fold induction at 10 µM ([4]; Homo sapiens, Embryonic stem cell, 10 μM test compound with 100 ng/ml activin A on days 1-2, H9, total intensity by IN Cell Analyzer, strong and moderate hits, read-out: HNF3β Expression, Fold over Wnt 3a/AA control)","Raw data (duplicate), first replicate [1]","Raw data (duplicate), second replicate [1]",Average [1],"% Control [1, 5] [%]","Proliferative Response Fold over Wnt 3a/AA control [2, 6]","Proliferative Response Total cells [2, 7]","Proliferative Response Fold over Wnt 3a/AA control [2, 8] [fold]","Proliferative Response Total cells [2, 9]","Proliferative Response Fold over Wnt 3a/AA control [2, 10] [fold]",SOX-17 Expression Total Intensity [3],SOX-17 Expression Fold over Wnt 3a/AA control [3] [fold],"HNF3β Expression, Fold over Wnt 3a/AA control [4, 11]",HNF-3b Expression Total Intensity [4],HNF-3b Expression Fold over Wnt 3a/AA control [4] [fold]
O=C1NC(=O)C(c2cn(-c3cccnc3)c3ccccc23)=C1c1n[nH]c2ccccc12 [Compound 14],95.1,1.05,1.0080 Fold over Wnt 3a/AA control,0.869,–,–,–,–,–,–,–,–,–,–,–,–,–,–
"CCN1CCOCCn2cc(c3ccccc32)C2=C(C(=O)NC2=O)c2cn(c3ccccc23)CCOCC1 [Compound 15, 11-Ethyl-6,7,10,11,12,13,15,16-octahydro-9H,23H-5,26:17,22-di(metheno)dibenzo[k,q]pyrrolo[3,4-n][1,7,4,10,19]dioxatriazacyclohenicosine-23,25(24H)-dione]",–,–,1.2678 Fold over Wnt 3a/AA control,–,0.162,0.134,0.148,4.5,1.3217 Fold over Wnt 3a/AA control and 1.0269 Fold over Wnt 3a/AA control,5186,1.027,10533,1.322,475250000,1.2678,0.8807 Fold over Wnt 3a/AA control,404710000,0.8807
O=C1NC(=O)C2=C1c1cn(c3ncccc13)CCOCCOCCOCCn1cc2c2cccnc21 [Compound 167],–,–,0.9014 Fold over Wnt 3a/AA control,–,0.804,0.903,0.853,109.0,0.9928 Fold over Wnt 3a/AA control,5013,0.9928,6217,0.7801,337920000,0.9014,0.9515 Fold over Wnt 3a/AA control,437235000,0.9515
